From ChEMBL document CHEMBL1122370 (J Med Chem, 1983) come the findings set out here.

Series [1] deals with L1210. The series is described as follows: In vivo antitumor activity against L1210 leukemia in 5 mice measured as Increased life span at 20 mg/kg. It counts as functional. As to conditions: Mus musculus.
Series [2] relates to Mus musculus. The series is described as follows: Average weight of the mouse after treating with 20 mg/kg dose for 7 day. The series is classed as functional.
For series [3], the system named is Mus musculus. Nature of the series: (§1) Average weight of the mouse after treating with 40 mg/kg dose for 7 days. It counts as functional.
Series [4] relates to Mus musculus. Nature of the series: Average weight of the mouse after treating with 40 mg/kg dose for 1 day. Also noted: unit not given here. The series is classed as functional.
For series [5], the system named is Mus musculus. The series is described as follows: Average weight of the mouse after treating with 20 mg/kg dose for 1 day. It counts as functional. Set-up: unit not given here.
Series [6] concerns L1210. The series is described as follows: In vivo antitumor activity against L1210 leukemia in 13 mice measured as T/C values; T/C = 13/9. It counts as functional, Mus musculus.
The subject of series [7] is L1210. Nature of the series: In vivo antitumor activity against L1210 leukemia in 5 mice measured as median survival range at 20 mg/kg; Value ranges from(11-19). The series is classed as functional, Mus musculus.
Series [8] has as its system L1210. Nature of the series: In vivo antitumor activity against L1210 leukemia in 17 mice measured as T/C values; T/C = 17/9. It counts as functional, Mus musculus.
Series [9] relates to L1210. The series is described as follows: In vivo antitumor activity against L1210 leukemia in 5 mice measured as Increased life span at 40 mg/kg. The series is classed as functional. The note with it: Mus musculus.
Series [10] deals with L1210. The series is described as follows: In vivo antitumor activity against L1210 leukemia in 5 mice measured as median survival range at 40 mg/kg; value ranges from(11-21). It counts as functional, Mus musculus.
Series [11] has as its system L1210. Nature of the series: In vivo antitumor activity against L1210 leukemia in 5 mice measured as Increased life span at 80 mg/kg. It counts as functional. As to conditions: Mus musculus.
Series [12] relates to L1210. Nature of the series: In vivo antitumor activity against L1210 leukemia in 19 mice measured as T/C values(days); T/C = 19/9. It counts as functional, Mus musculus.
Series [13] relates to Mus musculus. The series is described as follows: Average weight of the mouse after treating with 80 mg/kg dose for 7 days. It counts as functional. Set-up: unit not given beside the values.
The subject of series [14] is L1210. The series is described as follows: In vivo antitumor activity against L1210 leukemia in 5 mice measured as median survival range at 80 mg/kg; Value ranges from(12-23). The series is classed as functional, Mus musculus.
For series [15], the system named is L1210. The series is described as follows: In vivo antitumor activity against L1210 leukemia in 13 mice measured as T/C values(days); T/C = 13/9. It counts as functional, Mus musculus.
Series [16] concerns Mus musculus. Nature of the series: Average weight of the mouse after treating with 80 mg/kg dose for 1 day. It counts as functional. Set-up: unit not given here.
The subject of series [17] is L1210. Nature of the series: In vivo antitumor activity against L1210 leukemia in 5 mice measured as median survival range at 40 mg/kg; Value ranges from(12-18). The series is classed as functional, Mus musculus.
The test system of series [18] is Mus musculus. The series is described as §1. Also noted: unit not given beside the values. It counts as functional.
The test system of series [19] is L1210. Nature of the series: In vivo antitumor activity against L1210 leukemia in 5 mice measured as median survival range at 20 mg/kg; Value ranges from(12-14). It counts as functional, Mus musculus.
Series [20] has as its system Mus musculus. The series is described as follows: Average weight of the mouse after treating with 20 mg/kg dose for 7 days. The series is classed as functional. Set-up: unit not given beside the values.
Series [21] concerns L1210. The series is described as follows: In vivo antitumor activity against L1210 leukemia in 5 mice measured as median survival range at 80 mg/kg; Value ranges from(13-20). The series is classed as functional, Mus musculus.
The subject of series [22] is L1210. The series is described as follows: In vivo antitumor activity against L1210 leukemia in 19 mice measured as T/C value; T/C = 19/9. It counts as functional, Mus musculus.
In series [23] the test system is L1210. Nature of the series: In vivo antitumor activity against L1210 leukemia in 5 mice measured as median survival range at 40 mg/kg; Value ranges from(14-17). As to conditions: mouse. Also noted: dose 40 mg/kg.
The test system of series [24] is L1210. Nature of the series: In vivo antitumor activity against L1210 leukemia in 5 mice measured as Increased life span. The series is classed as functional, Mus musculus.
For series [25], the system named is L1210. Nature of the series: In vivo antitumor activity against L1210 leukemia in 5 mice measured as T/C values(days); T/C = 21/9. It counts as functional, Mus musculus.
Series [26] concerns L1210. Nature of the series: In vivo antitumor activity against L1210 leukemia in 5 mice measured as median survival range at 20 mg/kg; Value ranges from(11-14). It counts as functional, Mus musculus.
Series [27] has as its system L1210. Nature of the series: In vivo antitumor activity against L1210 leukemia in 5 mice measured as median survival range at 40 mg/kg; Value ranges from(13-19). The series is classed as functional, Mus musculus.
Series [28] concerns Mus musculus. The series is described as follows: Average weight of the mouse after treating with 120 mg/kg dose for 1 day. The series is classed as functional.
Series [29] relates to L1210. The series is described as follows: In vivo antitumor activity against L1210 leukemia in 10 mice measured as median survival range at 120 mg/kg; Value ranges from(13-36). It counts as functional, Mus musculus.
For series [30], the system named is Mus musculus. The series is described as follows: Average weight of the mouse after treating with 120 mg/kg dose for 7 days. The series is classed as functional.
Series [31] relates to L1210. The series is described as follows: In vivo antitumor activity against L1210 leukemia in 10 mice measured as Increased life span at 120 mg/kg. The series is classed as functional. As to conditions: Mus musculus.
Series [32] concerns L1210. The series is described as follows: In vivo antitumor activity against L1210 leukemia in 15 mice measured as T/C values(days); T/C = 15/9. The series is classed as functional, Mus musculus.
Series [33] concerns Mus musculus. The series is described as follows: Average weight of the mouse after treating with 140 mg/kg dose for 7 days. The series is classed as functional.
The subject of series [34] is L1210. The series is described as follows: In vivo antitumor activity against L1210 leukemia in 5 mice measured as median survival range at 80 mg/kg; Value ranges from(13-26). It counts as functional, Mus musculus.
Series [35] deals with Mus musculus. The series is described as follows: Average weight of the mouse after treating with 140 mg/kg dose for 1 day. The series is classed as functional.
The test system of series [36] is L1210. The series is described as follows: In vivo antitumor activity against L1210 leukemia in 14 mice measured as T/C values(days); T/C = 14/9. The series is classed as functional, Mus musculus.
The test system of series [37] is L1210. The series is described as follows: In vivo antitumor activity against L1210 leukemia in 5 mice measured as median survival range at 140 mg/kg; Value ranges from(8-27). It counts as functional, Mus musculus.
For series [38], the system named is L1210. Nature of the series: In vivo antitumor activity against L1210 leukemia in 5 mice measured as Increased life span at 140 mg/kg. It counts as functional. The note with it: Mus musculus.
The test system of series [39] is L1210. Nature of the series: In vivo antitumor activity against L1210 leukemia in 23 mice measured as T/C values(days); T/C = 23/9. The series is classed as functional, Mus musculus.
Series [40] relates to L1210. The series is described as follows: In vivo antitumor activity against L1210 leukemia in 22 mice measured as T/C values(days); T/C = 22/9. It counts as functional, Mus musculus.

On to `Cc1cc(C)c(COC(=O)CCC(NC(=O)c2ccc(N(C)Cc3cnc4nc(N)nc(N)c4n3)cc2)C(=O)OCc2c(C)cc(C)cc2C)c(C)c1` (stereo not drawn), for which the ILS at 20 mg/kg in [1] worked out at 44%. For the same compound, the Weight change in [2] is on record as 0.8; in series [3], 0. Moreover, the figures for the Average weight in series [4] and in series [5] were 22 and 20.4, respectively. For the same compound, the T/C in series [6] and in series [8] was 9 each time. Besides, the Range in series [7] turned out to be 19; in series [10] it was 21. Also, the ILS at 40 mg/kg in series [9] was 88%.

In turn, `CC(C)COC(=O)CCC(NC(=O)c1cc(Cl)c(N(C)Cc2cnc3nc(N)nc(N)c3n2)c(Cl)c1)C(=O)OCC(C)C` (stereo not drawn) had an ILS at 80 mg/kg in [11] of 111%. Further, the T/C in series [12] and in series [15] was 9 in each case. The Weight change is 1.3 in [13] and 0.1 in series [18]. In addition, the results for the Range in [14] and in [17] were 23 and 18, respectively. In addition, the Average weight is on record as 19.8 in series [16] and 21.4 in series [4]. For the same compound, the ILS at 40 mg/kg in series [9] is 44%.

As to `CCCCOC(=O)C(CCC(=O)OCc1cccnc1)NC(=O)c1ccc(N(C)Cc2cnc3nc(N)nc(N)c3n2)cc1` (stereo not drawn), the ILS at 20 mg/kg in [1] is 50%. For the same compound, the Range worked out at 14 in series [19], 20 in series [21] and 17 in [23]. Also, the Weight change in series [13] stood at 0.3; in series [20], 2.4; in series [18], 1.7. The Average weight in series [16] is listed as 22; in [4], 21.2; in series [5], 21.1. In series [22], this compound came in with a T/C of 9. The compound further displayed an increase in lifespan (ILS) at 40 mg/kg in [9] of 75%. The same compound showed an ILS in series [24] of 137%.

With `CCCC(C)OC(=O)CCC(NC(=O)c1cc(Cl)c(N(C)Cc2cnc3nc(N)nc(N)c3n2)c(Cl)c1)C(=O)OC(C)CCC` (stereo not drawn), in series [1], the ILS at 20 mg/kg stood at 55%. Further, the T/C in series [25] amounted to 9; in [32], 9; in series [36], 9; in [39], 9; in [40] it was 22. This compound also gave an increase in lifespan (ILS) at 80 mg/kg in [11] of 133%. The Range is 14 in series [26]; 19 in series [27]; 36 in series [29]; 26 in series [34]; 27 in series [37]. For the same compound, the Average weight in [28] is reported as 21.5; in series [16], 21.2; in series [35], 21.6; in series [4], 20.6; in series [5] it was 22.1. Further, the Weight change was determined as 1.5 in [13]; 1.4 in [30]; 2.6 in [20]; 3.2 in series [33]; 0.1 in series [18]. The same compound registered an ILS at 120 mg/kg in series [31] of 145%. This compound also gave an ILS at 140 mg/kg in series [38] of 155%. The same compound gave an increase in life span (ILS) at 40 mg/kg in series [9] of 66%.

For orientation: ILS means the gain in survival time of treated over control animals, in per cent.
